{
  "source": "patent US20190210996A1",
  "about": "“NOVEL COMPOUNDS” (GLAXOSMITHKLINE INTELLECTUAL PROPERTY DEVELOPMENT LIMITED, priority 2016, published 2019)",
  "biological_target": "T1, PTK2B (Homo sapiens, UniProt Q14289)",
  "T1 construct": "endogenous in cells; host or cells: THP-1",
  "T1 sequence (Q14289 whole entry)": "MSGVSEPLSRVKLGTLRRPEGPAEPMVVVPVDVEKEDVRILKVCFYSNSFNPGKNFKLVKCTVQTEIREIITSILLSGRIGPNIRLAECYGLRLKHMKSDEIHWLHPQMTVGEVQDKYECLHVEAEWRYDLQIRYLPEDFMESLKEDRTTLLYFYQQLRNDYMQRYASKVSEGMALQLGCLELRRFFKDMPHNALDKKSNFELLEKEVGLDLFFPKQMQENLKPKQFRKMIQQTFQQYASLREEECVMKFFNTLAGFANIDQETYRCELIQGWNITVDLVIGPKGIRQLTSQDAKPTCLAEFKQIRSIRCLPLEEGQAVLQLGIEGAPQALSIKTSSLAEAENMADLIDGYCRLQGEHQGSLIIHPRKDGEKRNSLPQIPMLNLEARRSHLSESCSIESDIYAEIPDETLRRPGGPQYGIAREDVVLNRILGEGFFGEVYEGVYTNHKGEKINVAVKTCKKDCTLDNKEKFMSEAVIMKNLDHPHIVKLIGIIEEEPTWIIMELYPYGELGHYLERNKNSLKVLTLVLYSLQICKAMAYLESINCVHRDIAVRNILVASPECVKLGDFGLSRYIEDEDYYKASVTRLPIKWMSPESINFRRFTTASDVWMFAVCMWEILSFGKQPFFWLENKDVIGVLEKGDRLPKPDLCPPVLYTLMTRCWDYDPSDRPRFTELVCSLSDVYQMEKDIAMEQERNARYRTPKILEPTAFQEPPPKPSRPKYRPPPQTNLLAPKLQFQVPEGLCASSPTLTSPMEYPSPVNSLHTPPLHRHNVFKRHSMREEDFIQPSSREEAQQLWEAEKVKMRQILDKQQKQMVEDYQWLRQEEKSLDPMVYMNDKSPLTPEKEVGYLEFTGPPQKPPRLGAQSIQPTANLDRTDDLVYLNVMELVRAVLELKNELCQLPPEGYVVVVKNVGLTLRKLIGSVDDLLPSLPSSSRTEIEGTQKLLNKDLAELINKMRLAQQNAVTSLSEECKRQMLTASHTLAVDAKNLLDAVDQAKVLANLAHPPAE",
  "test": "Expression proteomics in THP-1 cells: PTK2B protein level",
  "format": "cell-based",
  "experimental": "THP-1 cells were seeded at a concentration of 3×10^6 cells in T175 flasks with 60 mL growth medium (RPMI1640+10% FBS). […] of a 10× compound solution prepared in growth medium (DMSO), CEREBLON_PROTAC) was added and the cells were treated for the indicated time points (6 or 24 h) at 37° C., 5% CO2. For harvesting the cells were collected into falcon tubes on ice, centrifuged and washed twice in cold PBS (Life technologies). After the last washing step the supernatant was removed and the pellets were snap-frozen in liquid N2 and stored at −80° C. and lysed in 2% SDS for 3 min at 95° C. in a thermomixer (Thermo Fisher Scientific), followed by digestion of DNA with Benzonase at 37° C. for 1.5 h. Lysate was cleared by centrifugation an protein concentration in supernatant was determined by BCA assay.\nLeukemia 25, 89-100 (2011).\nSamples were dried in vacuo and resuspended in 0.05% trifluoroacetic acid in water. Of the sample, 50% was injected into an Ultimate3000 nanoRLSC (Dionex, Sunnyvale, Calif.) coupled to a Q Exactive HF (Thermo Fisher Scientific). Peptides were trapped on a 5 mm×300 μm C18 column (Pepmap100, 5 μm, 300 Å, Thermo Fisher Scientific) in water with 0.05% TFA at 60° C. Separation was performed on custom 50 cm×[…] (ID) reversed-phase columns (Reprosil) at 55° C. Gradient elution was performed from 2% acetonitrile to 40% acetonitrile in 0.1% formic acid and 3.5% DMSO over 2 hours. Samples were online injected into Q-Exactive HF mass spectrometers operating with a data-dependent top 10 method. MS spectra were acquired by using 60.000 resolution and an ion target of 3×10^6. Higher energy collisional dissociation (HCD) scans were performed with 35% NCE at 30.000 resolution (at m/z 200), and the ion target settings was set to 2×10^5 so as to avoid coalescence (Werner, T. et al. Ion Coalescence of Neutron Encoded TMT 10-Plex Reporter Ions. Anal. Chem. 86, 3594-3601 (2014).\nThe first search was performed with 30 parts per million mass tolerance for peptide precursors and 30 mD (HCD) mass tolerance for fragment ions followed by a final search using recalibrated data with a 10 parts per million mass tolerance for peptide precursors and 20 mD (HCD) mass tolerance for fragment ions. Carbamidomethylation of cysteine residues and TMT modification of lysine residues were set as fixed modifications and methionine oxidation, and N-terminal acetylation of proteins and TMT modification of peptide N-termini were set as variable modifications. […]\nNat Biotech 29, 255-265 (2011). this measure is referred to as ion area Savitski, M. M. et al. Delayed Fragmentation and Optimized Isolation Width Settings for Improvement of Protein Identification and Accuracy of Isobaric Mass Tag Quantification on Orbitrap-Type Mass Spectrometers. […]",
  "data": [
    {"smiles": "CNC(=O)c1ccccc1Nc1nc(Nc2ccc(N3CCN(CCOCCOCCOCCOCC(=O)Nc4cccc5c4CN(C4CCC(=O)NC4=O)C5=O)CC3)cc2)ncc1Cl.O=CO", "note": "(stereo not shown) [CEREBLON_PROTAC, 14-(4-(4-((5-Chloro-4-((2-(methylcarbamoyl)phenyl)amino)pyrimidin-2-yl)amino)phenyl)piperazin-1-yl)-N-(2-(2,6-dioxopiperidin-3-yl)-1-oxoisoindolin-4-yl)-3,6,9,12-tetraoxatetradecan-1-amide formate]", "values": [
      {"measurement": "log2 rel. fc. to vehicle control", "setting": "24 h 0.1 μM, n = 1", "result": "−2.34"},
      {"measurement": "log2 rel. fc. to vehicle control", "setting": "24 h 0.1 μM, n = 2", "result": "−2.50"},
      {"measurement": "log2 rel. fc. to vehicle control", "setting": "24 h 1 μM, n = 1", "result": "−2.09"},
      {"measurement": "log2 rel. fc. to vehicle control", "setting": "24 h 1 μM, n = 2", "result": "−2.18"}
    ]}
  ]
}
